Consider 28 compounds from US6794402B2, “Bicyclic cyclohexylamines and their use as NMDA receptor antagonists” (Warner-Lambert Company, priority 2000, dated 2004).

Where a name gives a salt, the structure may show the parent alone.

The target in one data set is T1, [3H]ifenprodil binding site, rat forebrain membranes (Rattus norvegicus, UniProt P35439+Q00960).
T1 construct: membrane fraction was prepared from frozen adult rat forebrains; tissue Zivic-Miller Laboratories, Inc; host or cells: adult rat forebrain, washed buffy coat membrane fraction
T1 sequence (Q00960 27-1482, other chains not shown): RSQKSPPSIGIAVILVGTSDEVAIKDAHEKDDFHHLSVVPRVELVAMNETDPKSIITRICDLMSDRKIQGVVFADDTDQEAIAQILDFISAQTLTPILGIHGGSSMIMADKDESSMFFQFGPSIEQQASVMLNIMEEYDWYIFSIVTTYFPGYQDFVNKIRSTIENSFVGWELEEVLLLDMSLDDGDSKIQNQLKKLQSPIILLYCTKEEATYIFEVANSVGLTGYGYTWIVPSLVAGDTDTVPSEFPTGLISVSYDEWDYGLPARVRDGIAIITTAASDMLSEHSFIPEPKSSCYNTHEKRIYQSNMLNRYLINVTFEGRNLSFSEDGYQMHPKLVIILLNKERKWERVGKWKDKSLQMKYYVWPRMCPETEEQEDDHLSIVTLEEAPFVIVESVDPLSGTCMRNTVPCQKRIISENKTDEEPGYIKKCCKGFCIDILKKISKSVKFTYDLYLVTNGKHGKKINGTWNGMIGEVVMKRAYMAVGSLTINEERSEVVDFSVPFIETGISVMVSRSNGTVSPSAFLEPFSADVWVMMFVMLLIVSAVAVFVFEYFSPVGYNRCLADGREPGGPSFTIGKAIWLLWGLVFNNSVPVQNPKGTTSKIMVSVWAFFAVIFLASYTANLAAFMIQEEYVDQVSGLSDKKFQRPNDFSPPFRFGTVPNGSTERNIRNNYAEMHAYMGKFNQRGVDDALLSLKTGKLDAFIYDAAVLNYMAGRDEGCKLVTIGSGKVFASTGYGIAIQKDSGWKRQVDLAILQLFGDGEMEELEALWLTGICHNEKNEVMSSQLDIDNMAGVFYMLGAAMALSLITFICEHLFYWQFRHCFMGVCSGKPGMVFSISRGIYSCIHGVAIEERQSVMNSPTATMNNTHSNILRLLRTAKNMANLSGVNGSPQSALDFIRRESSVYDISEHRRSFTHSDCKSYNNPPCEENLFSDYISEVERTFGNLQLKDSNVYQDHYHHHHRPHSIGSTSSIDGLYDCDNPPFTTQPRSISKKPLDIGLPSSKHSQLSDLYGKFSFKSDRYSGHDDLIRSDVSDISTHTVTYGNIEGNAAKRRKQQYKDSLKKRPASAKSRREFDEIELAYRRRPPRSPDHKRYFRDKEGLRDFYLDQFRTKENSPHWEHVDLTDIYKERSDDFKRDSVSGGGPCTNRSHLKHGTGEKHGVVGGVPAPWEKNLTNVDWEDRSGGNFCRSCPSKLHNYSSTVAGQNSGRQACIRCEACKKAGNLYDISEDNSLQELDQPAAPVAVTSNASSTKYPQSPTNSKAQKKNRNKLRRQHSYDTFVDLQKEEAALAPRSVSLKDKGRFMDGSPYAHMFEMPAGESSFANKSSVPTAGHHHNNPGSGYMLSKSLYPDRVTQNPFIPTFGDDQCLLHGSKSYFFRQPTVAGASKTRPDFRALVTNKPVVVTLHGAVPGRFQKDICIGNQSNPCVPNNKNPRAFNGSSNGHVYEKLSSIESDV
The data set can be described thus: [3H]Ifenprodil binding assay. To be noted: 4 nM [3H]-ifenprodil, 2 hours at room temperature. The procedure: All buffers and reagents used in assay incubations or to dissolve drugs were prepared using water purified through a Milli-Q reverse osmosis system (Millipore Corp, Bedford, Mass.) and treated with UV emissions. Prior to use in the assays, buffers were further filtered through a sterile Corning filtration unit (Corning Glass Works, Corning, N.Y.) containing a 0.2-micron filter. Buffer used to rinse the membranes on the assay filters was prepared with purified water, but was not refiltered and was stored no longer than 5 days. Stock solutions of the drugs (usually 10 mM) were dissolved in 20 mM HEPES-KOH buffer pH 7.4 (assay buffer) with the addition of 1 to 5 μL of glacial AcOH, if needed to keep them in solution. For eliprodil the stock solution was buffered with the addition of 10% DMSO. All subsequent dilutions from stock were made in buffer.
An extensively washed buffy coat membrane fraction was prepared from frozen adult rat forebrains (Zivic-Miller Laboratories, Inc., Zelienople, Pa.) as described previously (Coughenour L. L., Cordon, J. J., J. Pharmacol. Exp. Ther., 1997;280:584-592) and stored at −80° C. On the day of the assay, pellets were resuspended in 35 mL of assay buffer at pH 7.4 using a Polytron setting 6. After incubation at 37° C. for 30 minutes in a shaking water bath, the homogenate was centrifuged 40,000×g for 10 minutes at 4° C. The pellets were resuspended in fresh buffer and centrifuged 3 more times before final suspension for use in the assay.
[^3H]Ifenprodil Binding. Triplicate incubations were carried out in a volume of 0.5 mL in 1.3 mL polypropylene tubes (Marsh Biomedical Products Inc., Rochester, N.Y.) for 2 hours at room temperature. Incubations contained test agents, membranes (100-200 μg protein) and 4 nM[^3H]-ifenprodil in 20 mM HEPES-KOH buffer, pH 7.4 (assay buffer). Assays were started by addition of the membranes. Bound radioligand was separated by filtration under reduced pressure using a Tomtec Mach II, 96-well cell harvester (Tomtec Inc., Orange, Colo.). Filtration was through Whatman GF/B glass fiber filters (Whatman Ltd, Maidstone, England), which had been soaked for at least 15 minutes in 0.3% polyethylenimine and allowed to air dry. The filters were rinsed with 3 mL of ice cold assay buffer within 6 seconds. Air was allowed to pass through the filters for an additional 10 seconds to remove residual moisture. The filter mat was supported on a cold (−20° C.) teflon support, and filters from individual wells were separated and placed in Mini Poly-Q vials (Beckman Instruments Inc., Fullerton, Calif.) and filled with 4 mL of scintillation cocktail (Beckman Ready Protein^+). Radioactivity retained on the filter was determined by liquid scintillation spectrophotometry. Nonspecific binding was defined as the binding in the presence of 1 mM ifenprodil. Specific binding was 90%.
Data analysis. Binding curves were statistically analyzed for a best one or two site competition fit using GraphPad Prism software (GraphPad Software Inc., San Diego, Calif.). The normalized data was fit by nonweighted nonlinear regression to either [formula]
Control data was entered as 100%, and no parameters were constrained. Inhibition curves were compared by ANOVA with post test comparisons of the logIC50 using Dunnett's multiple comparisons post test or Student's nonpaired, two-tailed t-test (GraphPad InStat software).
`CN(CCCc1ccsc1)[C@H]1CC[C@H](c2ccc3[nH]c(=O)oc3c2)CC1` [Example 52b, 6-[trans-4-{[3-(3-Thiophen-3-yl)propyl]methylamino}cyclohexyl)-3H-benzoxazol-2-one]: the IC50 stood at 0.003 µM.

`CC(C)c1ccc(CCCN(C)[C@H]2CC[C@H](c3ccc4[nH]c(=O)oc4c3)CC2)cc1` [Example 53, 6-(trans-4-{[3-(4-Isopropylphenyl)propyl]methylamino}cyclohexyl)-3H-benzoxazol-2-one] yielded an IC50 of 0.002 µM.

In the case of `CN(CCCc1ccc(Cl)cc1Cl)[C@H]1CC[C@H](c2ccc3[nH]c(=O)oc3c2)CC1` [Example 54, 6-(trans-4-{[3-(2,4-Dichlorophenyl)propyl]methylamino}cyclohexyl)-3H-benzoxazol-2-one], the IC50 came to 0.034 µM.

The compound `CN(CCCc1ccc(F)c(F)c1F)[C@H]1CC[C@H](c2ccc3[nH]c(=O)oc3c2)CC1` [Example 55, 6-(trans-4-{[3-(2,3,4-Trifluorophenyl)propyl]methylamino}cyclohexyl)-3H-benzoxazol-2-one] gave a 50% inhibitory concentration (IC50) of 0.005 µM.

With `CC(C)Cc1ccc(CCCN(C)[C@H]2CC[C@H](c3ccc4[nH]c(=O)oc4c3)CC2)cc1` [Example 56, 6-(trans-4-{[3-(4-Isobutylphenyl)propyl]methylamino}cyclohexyl)-3H-benzoxazol-2-one], the IC50 was determined as 0.071 µM.

For the compound `CN(CCCc1c(F)cc(F)cc1F)[C@H]1CC[C@H](c2ccc3[nH]c(=O)oc3c2)CC1` [Example 57, 6-(trans-4-{[3-(2,4,6-Trifluorophenyl)propyl]methylamino}cyclohexyl)-3H-benzoxazol-2-one], the IC50 was 0.006 µM.

Take `CN(CCCc1nccs1)[C@H]1CC[C@H](c2ccc3[nH]c(=O)oc3c2)CC1` [Example 59, 6-{trans-4-[Methyl(3-thiazol-2-ylpropyl)amino]cyclohexyl}-3H-benzoxazol-2-one]: the IC50 is 0.316 µM.

With `CN(CCN(C)[C@H]1CC[C@H](c2ccc3[nH]c(=O)oc3c2)CC1)c1ccccc1` [Example 60, 6-(trans-4-{Methyl-[2-(Methylphenylamino)ethyl]amino}cyclohexyl)-3H-benzoxazol-2-one], the IC50 is > 1 µM.

`CN(CCCc1ccc(F)cc1)[C@H]1CC[C@H](c2ccc3[nH]c(=O)sc3c2)CC1` [Example 61b, 6-(trans-4-{[3-(4-Fluorophenyl)propyl]methylamino}cyclohexyl)-3H-benzthiazol-2-one] showed an IC50 of 0.012 µM.

`O=c1[nH]c2ccc([C@H]3CC[C@H](NCCCc4ccc(F)cc4)CC3)cc2[nH]1` [Example 62, 5-{trans-4-[3-(4-Fluorophenyl)propylamino]cyclohexyl}-1,3-dihydrobenzoimidazol-2-one] returned an IC50 of 0.017 µM.

With `CN(CCCc1ccc(F)cc1)[C@H]1CC[C@H](c2ccc3[nH]c(=O)[nH]c3c2)CC1` [Example 63, 5-(trans-4-{[3-(4-Fluorophenyl)propyl]methylamino}cyclohexyl)-1,3-dihydrobenzoimidazol-2-one], the IC50 was found to be 0.002 µM.

Regarding `Cc1cc2[nH]c(=O)oc2cc1[C@H]1CC[C@H](N(C)CCCc2ccc(F)cc2)CC1` [Example 64, 6-(4-{[3-(4-Fluorophenyl)propyl]methyl-amino}cyclohexyl)-5-methyl-3H-benzoxazol-2-one], the IC50 is 0.045 µM.

On to `COc1cc2[nH]c(=O)oc2cc1[C@H]1CC[C@H](N(C)CCCc2ccc(F)cc2)CC1` [Example 65, 6-(trans-4-{[3-(4-Fluorophenyl)propyl]methylamino}cyclohexyl)-5-methoxy-3H-benzoxazol-2-one], for which the IC50 came out at 0.067 µM.

Tested on in another data set: not given
Test: not given
Conditions: not given
Consider `O=c1[nH]c2ccc([C@H]3CC[C@H](NCCCc4ccc(F)cc4)CC3)cc2o1` (as salt: HCl) [Example 4a, 6-{trans-4-[3-(4-Fluorophenyl)propylamino]cyclohexyl}-3H-benzoxazol-2-one], for which the melting point was in the range of 293 to 307 °C.

Consider `O=c1[nH]c2ccc([C@H]3CC[C@H](NCCSc4ccccc4)CC3)cc2o1` (as salt: HCl) [Example 5a, 6-[trans-4-(2-Phenylsulfanylethylamino)cyclohexyl]-3H-benzoxazol-2-one], for which the melting point was 241 to 243 °C.

For the compound `O=c1[nH]c2ccc([C@H]3CC[C@H](NCCSc4ccc(F)cc4)CC3)cc2o1` (as salt: HCl) [Example 8, 6-{trans-4-[2-(4-Fluorophenylsulfanyl)ethylamino]cyclohexyl}-3H-benzoxazol-2-one], the melting point was 254 to 256 °C.

Turning to `C[C@H](CCc1ccccc1)N[C@H]1CC[C@H](c2ccc3[nH]c(=O)oc3c2)CC1` (as salt: HCl) [Example 9, 6-{trans-4-[(R)-1-Methyl-3-phenylpropylamino]cyclohexyl}-3H-benzoxazol-2-one], the melting point was 291 to 304 °C.

As to `Cc1ccc(CCCN[C@H]2CC[C@@H](c3ccc4[nH]c(=O)oc4c3)CC2)cc1` (as salt: HCl) [Example 13a, 6-[cis-4-(3-p-Tolylpropylamino)cyclohexyl]-3H-benzoxazol-2-one], the melting point was in the range of 263 to 265 °C.

`O=c1[nH]c2ccc([C@H]3CC[C@H](NCCCc4ccc(C(F)(F)F)cc4)CC3)cc2o1` (as salt: HCl) [Example 14, 6-{trans-4-[3-(4-Trifluoromethylphenyl)propylamino]cyclohexyl}-3H-benzoxazol-2-one] came in with a melting point of 285 to 295 °C.

For `O=c1[nH]c2ccc([C@H]3CC[C@H](NCC[S+]([O-])c4ccccc4)CC3)cc2o1` (stereo partly drawn) (as salt: HCl) [Example 15, 6-[trans-4-(2-Benzenesulfinylethylamino)cyclohexyl]-3H-benzoxazol-2-one], the melting point lay in the range of 107 to 110 °C.

Compound `O=c1[nH]c2ccc([C@H]3CC[C@H](NCCS(=O)(=O)c4ccccc4)CC3)cc2o1` (as salt: HCl) [Example 16, 6-[trans-4-(2-Benzenesulfonylethylamino)cyclohexyl]-3H-benzoxazol-2-one] yielded a melting point of 202 to 208 °C.

Compound `CN(CCSc1ccc(F)cc1)[C@H]1CC[C@H](c2ccc3[nH]c(=O)oc3c2)CC1` (as salt: HCl) [Example 20, 6-{trans-4-[2-(4-Fluorophenylsulfanylethyl)methylamino]cyclohexyl}-3H-benzoxazol-2-one] returned a melting point of 213 to 217 °C.

In turn, `Cc1ccc(CCCN(C)[C@H]2CC[C@H](c3ccc4[nH]c(=O)oc4c3)CC2)cc1` (as salt: HCl) [Example 21, 6-{trans-4-[Methyl-3-(p-Tolylpropyl)amino]cyclohexyl}-3H-benzoxazol-2-one] showed a melting point of 213 to 225 °C.

For `CN(CCOc1ccccc1)[C@H]1CC[C@H](c2ccc3[nH]c(=O)oc3c2)CC1` (as salt: HCl) [Example 22, 6-{trans-4-[Methyl(2-phenoxyethyl)amino]cyclohexyl}-3H-benzoxazol-2-one], the melting point fell in the range of 277 to 285 °C.

`CN(CCCc1ccc(C(F)(F)F)cc1)[C@H]1CC[C@H](c2ccc3[nH]c(=O)oc3c2)CC1` (as salt: HCl) [Example 23, 6-{trans-4-[Methyl-3-(4-Trifluoromethylphenyl)propylamino]cyclohexyl}-3H-benzoxazol-2-one] displayed a melting point of 227 to 234 °C.

With `CN(CCCc1ccc(F)cc1F)[C@H]1CC[C@H](c2ccc3[nH]c(=O)oc3c2)CC1` (as salt: HCl) [Example 24b, 6-(trans-4-{[3-(2,4-Difluorophenyl)propyl]methylamino}cyclohexyl)-3H-benzoxazol-2-one], the melting point was in the range of 269 to 272 °C.

On to `CCN(CCCc1ccc(F)cc1)[C@H]1CC[C@H](c2ccc3[nH]c(=O)oc3c2)CC1` (as salt: HCl) [Example 25, 6-(trans-4-{Ethyl-[3-(4-fluorophenyl)propyl]amino}cyclohexyl)-3H-benzoxazol-2-one], for which the melting point was 228 to 231 °C.

In turn, `CCN(CCCc1ccc(C(F)(F)F)cc1)[C@H]1CC[C@H](c2ccc3[nH]c(=O)oc3c2)CC1` (as salt: HCl) [Example 26] yielded a melting point of 248 to 252 °C.
